Measurements from US12391685B2, “Inhibitors of RNA-guided nuclease target binding and uses thereof” (THE BROAD INSTITUTE, INC., priority 2018, dated 2025).

Each compound was assayed against SpCas9 (Streptococcus pyogenes serotype M1, UniProt Q99ZW2) (assay: eGFP-disruption assay in U2OS.eGFP.PEST cells). Settings: screen of structural analogs of BRD7087; 15 μM compound, 24 h, U2OS.eGFP.PEST cells.
Assay type: cell-based, S. pyogenes
Parameters: host or cells: U2OS.eGFP.PEST
Protocol: SpCas9 nuclease activity in eGFP-disruption assay. Approximately 200,000 U2OS.eGFP-PEST cells were nucleofected following two different methods either by nucleofecting plasmids or RNP using the SE Cell Line 4D-Nucleofector™ X Kit (Lonza) according to the manufacturer's protocol. In the plasmid nucleofection method, cells were nucleofected either with 440 ng of SpCas9 (Addgene Plasmid #43861) or 400 ng of SpCas9 along with 40 ng of sgRNA (pFYF1320 eGFP Site #1, Addgene Plasmid #47511). Cells nucleofected only with SpCas9-expressing plasmid were used as the transfection control. In the RNP nucleofection method, either […] SpCas9 or 20 pmol preformed SpCas9:gRNA (eGFP Site #1) complex were nucleofected. Approximately 20,000 transfected cells/well were plated in 4 replicates in a 96-well plate (Corning® 3904). Cells were incubated with the indicated amount of compound or DMSO for 24 h post transfection. A DMSO solution of compound (20 mM) was resuspended in the 10% FBS containing growth media and thoroughly mixed before adding to the cells. Cells were then fixed using 4% paraformaldehyde and imaged with the HCS NuclearMask™ Blue Stain (Life Technologies) as the nuclear counter-staining agent. Imaging was performed with an ImageXpress Micro automated microscope (Molecular Devices) at 10× magnification under three excitation channels (blue, green and red) acquiring nine sites per well. Images were analyzed using MetaXpress software and data were plotted using GraphPad Prism 6.
The Z′-value was calculated using the equation (1), where σ1 and σ2 are the standard deviations of DMSO control and SpCas9:gRNA control respectively. μ1 and μ2 are the mean % GFP^− cell population for DMSO control and SpCas9:gRNA control, respectively.

Sequence of SpCas9 (Q99ZW2 whole entry): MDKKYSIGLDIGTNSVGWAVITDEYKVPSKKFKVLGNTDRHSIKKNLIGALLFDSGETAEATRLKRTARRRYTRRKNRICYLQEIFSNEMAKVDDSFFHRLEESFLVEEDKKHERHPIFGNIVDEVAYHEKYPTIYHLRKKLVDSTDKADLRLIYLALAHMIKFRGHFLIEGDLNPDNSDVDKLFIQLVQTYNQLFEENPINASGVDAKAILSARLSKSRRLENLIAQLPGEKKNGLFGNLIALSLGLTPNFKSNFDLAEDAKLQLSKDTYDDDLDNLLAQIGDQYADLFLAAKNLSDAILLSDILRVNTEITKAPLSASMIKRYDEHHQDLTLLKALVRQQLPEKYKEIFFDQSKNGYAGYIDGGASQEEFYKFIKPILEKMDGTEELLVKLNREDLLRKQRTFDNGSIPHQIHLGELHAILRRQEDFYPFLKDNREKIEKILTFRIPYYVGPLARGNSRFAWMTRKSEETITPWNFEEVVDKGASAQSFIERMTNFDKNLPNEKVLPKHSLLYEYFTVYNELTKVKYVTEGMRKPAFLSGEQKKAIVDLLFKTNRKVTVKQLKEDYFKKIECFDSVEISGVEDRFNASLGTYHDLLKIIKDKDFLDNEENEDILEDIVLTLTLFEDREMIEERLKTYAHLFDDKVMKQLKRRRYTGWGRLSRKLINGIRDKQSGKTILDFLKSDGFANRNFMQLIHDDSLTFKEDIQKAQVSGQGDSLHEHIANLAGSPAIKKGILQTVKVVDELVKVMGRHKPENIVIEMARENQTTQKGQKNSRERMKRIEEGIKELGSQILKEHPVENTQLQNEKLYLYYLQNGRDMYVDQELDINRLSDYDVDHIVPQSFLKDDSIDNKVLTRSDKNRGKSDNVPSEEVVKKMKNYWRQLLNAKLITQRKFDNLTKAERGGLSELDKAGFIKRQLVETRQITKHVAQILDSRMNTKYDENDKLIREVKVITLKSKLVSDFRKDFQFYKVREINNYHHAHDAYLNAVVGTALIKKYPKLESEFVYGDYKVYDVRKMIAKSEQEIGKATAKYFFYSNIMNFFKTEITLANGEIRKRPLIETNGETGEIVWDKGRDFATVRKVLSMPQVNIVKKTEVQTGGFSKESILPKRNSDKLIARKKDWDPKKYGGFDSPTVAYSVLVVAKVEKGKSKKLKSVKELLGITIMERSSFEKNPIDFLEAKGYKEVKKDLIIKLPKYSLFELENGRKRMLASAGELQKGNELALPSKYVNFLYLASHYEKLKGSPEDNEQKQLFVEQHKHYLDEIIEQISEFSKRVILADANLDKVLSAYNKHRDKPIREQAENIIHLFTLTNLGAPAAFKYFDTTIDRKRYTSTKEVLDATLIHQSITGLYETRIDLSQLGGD

Row | SMILES | Average Inhibition activity | Inhibition activity Rep 1 | Inhibition activity Rep 2
1 | CCC(=O)N1CC[C@H]2[C@@H]1c1cc(C#Cc3ccccc3OC)ccc1N(C)[C@H]2CO [BRD-K31513357] | 66.7 | 59.8 | 73.6
2 | CN1c2ccc(-c3ccccc3F)cc2[C@H]2[C@H](CCN2C(=O)NC2CCCCC2)[C@H]1CO [BRD-K35104316] | 49.1 | 54.2 | 44.1
3 | CN1c2ccc(C#Cc3cccnc3)cc2[C@@H]2[C@@H](CCN2S(=O)(=O)c2ccccc2F)[C@H]1CO [BRD-K39647256] | 54.9 | 51.3 | 58.4
4 | COc1ccccc1C#Cc1ccc2c(c1)[C@H]1NCC[C@H]1[C@@H](CO)N2 [BRD-K39870434] | 68.1 | 53.7 | 82.5
5 | CN1c2ccc(-c3ccc(C#N)cc3)cc2[C@@H]2[C@@H](CCN2S(=O)(=O)c2cccc(F)c2)[C@H]1CO [BRD-K40448176] | 51.6 | 52.1 | 51.2
6 | CCCC#Cc1ccc2c(c1)[C@@H]1[C@@H](CCN1S(=O)(=O)c1ccccc1OC)[C@@H](CO)N2 [BRD-K43330291] | 59.3 | 68.2 | 50.4
7 | CN1c2ccc(C#Cc3cccnc3)cc2[C@@H]2[C@@H](CCN2C(=O)c2cccc(F)c2)[C@H]1CO [BRD-K46446619] | 64.6 | 63.4 | 65.9
8 | O=S(=O)(c1ccc(F)cc1)N1CC[C@@H]2[C@H](CO)Nc3ccc(C#CC4CC4)cc3[C@@H]21 [BRD-K47320872] | 45.1 | 44.5 | 45.7
9 | CCC(=O)N1CC[C@@H]2[C@H]1c1cc(C#Cc3ccc(F)cc3)ccc1N[C@@H]2CO [BRD-K49114971] | 56.1 | 49.0 | 63.1
10 | Cc1ccc(S(=O)(=O)N2CC[C@@H]3[C@H](CO)Nc4ccc(-c5cccc(C(=O)N(C)C)c5)cc4[C@@H]32)cc1 [BRD-K51395794] | 53.9 | 46.5 | 61.3
11 | CN1c2ccc(-c3cccc(C#N)c3)cc2[C@H]2[C@H](CCN2C(=O)C2CCCCC2)[C@H]1CO [BRD-K53346571] | 52.7 | 49.1 | 56.3
12 | COc1ccc(C#Cc2ccc3c(c2)[C@H]2[C@H](CCN2C(=O)c2ccccc2F)[C@H](CO)N3C)cc1 [BRD-K56594357] | 57.9 | 55.8 | 59.9
13 | CN1c2ccc(C#Cc3cccnc3)cc2[C@H]2[C@H](CCN2S(=O)(=O)c2ccccc2F)[C@@H]1CO [BRD-K58893765] | 62.6 | 67.8 | 57.4
14 | O=C(C1CCCCC1)N1CC[C@@H]2[C@H](CO)Nc3ccc(Br)cc3[C@@H]21 [BRD-K60987574] | 60.9 | 59.5 | 62.2
15 | N#Cc1ccc(-c2ccc3c(c2)[C@H]2[C@H](CCN2C(=O)Cc2ccccc2)[C@@H](CO)N3)cc1 [BRD-K63155325] | 57.6 | 63.0 | 52.1
16 | O=S(=O)(c1cccc(F)c1)N1CC[C@H]2[C@H](CO)Nc3ccc(C#Cc4ccccc4F)cc3[C@H]21 [BRD-K67297693] | 72.2 | 64.3 | 80.1
17 | COc1ccc(S(=O)(=O)N2CC[C@@H]3[C@H](CO)N(C)c4ccc(-c5ccccc5F)cc4[C@@H]32)cc1 [BRD-K69451415] | 53.4 | 56.2 | 50.6
18 | COc1ccc(C#Cc2ccc3c(c2)[C@@H]2[C@@H](CCN2Cc2nccs2)[C@@H](CO)N3)cc1 [BRD-K70808105] | 51.5 | 47.4 | 55.6
19 | OC[C@@H]1Nc2ccc(C#Cc3cccnc3)cc2[C@H]2NCC[C@@H]12 [BRD-K71200053] | 67.6 | 54.6 | 80.6
